Drawing on patent US7381824B2 (Agouron Pharmaceuticals, Inc., priority 2003, dated 2008), this text covers inhibition and Ki for 2 compounds.

Where two headings read alike, the source gives them in different places.

For assay [1], the target named is T1, human vascular endothelial growth factor receptor 2 (VEGF-R2) (Homo sapiens, UniProt P35968, DEL940-989/E990V).
T1 construct: VEGF-R2D50 contains residues 806-939 and 990-1171; made in house; host or cells: baculovirus/insect cell system
Put plainly: VEGF-R2 coupled spectrophotometric assay (FLVK, unphosphorylated VEGF-R2D50). Type of assay: biochemical. The procedure, abridged:
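Unphosphorylated VEGF-R2D50 (residues 806-939/990-1171, E990V; baculovirus-expressed), 5 to 40 nM, with 20 mM poly(E4Y1), 3 mM ATP, 60 mM MgCl2 and 2 mM MnCl2 in 200 mM HEPES pH 7.5. ADP formation coupled via PK/LDH to NADH oxidation (A340). Ki fitted by Morrison equation; % inhibition at 50 nM from linear regression of absorbance versus time.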

Assay [2] deals with T2, human FGF-R1 (Homo sapiens, UniProt P11362, C488A/C584S/L457V).
T2 construct: starting from the endogenous methionine residue 456 to glutamate 766; made in house; host or cells: baculovirus vector expression system
T2 sequence (P11362 456-766 L457V/C488A/C584S): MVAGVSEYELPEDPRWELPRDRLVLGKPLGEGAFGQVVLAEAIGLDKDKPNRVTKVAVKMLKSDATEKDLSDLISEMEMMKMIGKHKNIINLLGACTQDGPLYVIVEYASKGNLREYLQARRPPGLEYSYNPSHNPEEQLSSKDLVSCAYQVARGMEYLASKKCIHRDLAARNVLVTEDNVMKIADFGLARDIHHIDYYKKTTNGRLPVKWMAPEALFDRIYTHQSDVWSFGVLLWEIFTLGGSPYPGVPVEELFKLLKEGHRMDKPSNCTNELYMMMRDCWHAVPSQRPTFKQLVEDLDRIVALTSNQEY
Description: FGF-R spectrophotometric assay. Type of assay: biochemical. How it is done:
The intracellular kinase domain of human FGF-R1 was expressed using the baculovirus vector expression system starting from the endogenous methionine residue 456 to glutamate 766, according to the residue numbering system of Mohammadi et al., Mol. Cell. Biol., 16, 977-989 (1996). In addition, the construct also has the following 3 amino acid substitutions: L457V, C488A, and C584S.
The spectrophotometric assay was carried out as described above for VEGF-R2, except for the following changes in concentration: FGF-R=50 nM, ATP=2 mM, and poly(E4Y1)=15 mM.

T1 sequence (P35968 with tags, fused parts or gaps DEL940-989/E990V limits assumed): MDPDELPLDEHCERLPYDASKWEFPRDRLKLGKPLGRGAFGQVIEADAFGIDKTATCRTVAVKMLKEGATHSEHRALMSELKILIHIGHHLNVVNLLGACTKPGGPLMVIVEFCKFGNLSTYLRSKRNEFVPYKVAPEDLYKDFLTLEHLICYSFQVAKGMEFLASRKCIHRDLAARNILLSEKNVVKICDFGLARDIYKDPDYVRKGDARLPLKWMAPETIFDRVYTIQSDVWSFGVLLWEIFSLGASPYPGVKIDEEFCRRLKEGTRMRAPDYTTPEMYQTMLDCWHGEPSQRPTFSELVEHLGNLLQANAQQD

Broadly, the inhibition is the share of the control response that was lost under treatment. Low readings indicate a weak effect, high ones a strong effect. Consider `COc1ccc2c(Oc3ccc4cc(C)oc4c3)ccnc2c1` [Example 125, 7-Methoxy-4-(2-methyl-benzofuran-6-yloxy)-quinoline], for which the results for the inhibition at 1 µM in assay [1] and in assay [2] were 68% and 32%, respectively.

Broadly, the Ki is the equilibrium dissociation constant of an inhibitor or competing ligand from its target. Take `Cc1cc2ccc(Oc3ccnc4cc(OCCN5CCOCC5)ccc34)cc2o1` [Example 126, 4-(2-Methyl-benzofuran-6-yloxy)-7-(2-morpholin-4-yl-ethoxy)-quinoline]: the Ki in assay [1] was 32 nM; in assay [1] (unphosphorylated VEGF-R2D50 (FLVK)) it was over 10 nM. In assay [2], this compound yielded an inhibition at 1 µM of 38%.
